Test results from ChEMBL document CHEMBL3352334, “Design, synthesis and pharmacological evaluation of 2-(thiazol-2-amino)-4-arylaminopyrimidines as potent anaplastic lymphoma kinase (ALK) inhibitors” (Eur J Med Chem, 2014).
Values belong to the compound of their own block, whether it stands above or below them.

Columns and labels:
[1] = target: T1, ALK tyrosine kinase receptor (Homo sapiens, UniProt Q9UM73); experiment: Inhibition of purified ALK (unknown origin) after 60 mins by ELISA kinase assay
Target sequence in this assay (Q9UM73 whole entry): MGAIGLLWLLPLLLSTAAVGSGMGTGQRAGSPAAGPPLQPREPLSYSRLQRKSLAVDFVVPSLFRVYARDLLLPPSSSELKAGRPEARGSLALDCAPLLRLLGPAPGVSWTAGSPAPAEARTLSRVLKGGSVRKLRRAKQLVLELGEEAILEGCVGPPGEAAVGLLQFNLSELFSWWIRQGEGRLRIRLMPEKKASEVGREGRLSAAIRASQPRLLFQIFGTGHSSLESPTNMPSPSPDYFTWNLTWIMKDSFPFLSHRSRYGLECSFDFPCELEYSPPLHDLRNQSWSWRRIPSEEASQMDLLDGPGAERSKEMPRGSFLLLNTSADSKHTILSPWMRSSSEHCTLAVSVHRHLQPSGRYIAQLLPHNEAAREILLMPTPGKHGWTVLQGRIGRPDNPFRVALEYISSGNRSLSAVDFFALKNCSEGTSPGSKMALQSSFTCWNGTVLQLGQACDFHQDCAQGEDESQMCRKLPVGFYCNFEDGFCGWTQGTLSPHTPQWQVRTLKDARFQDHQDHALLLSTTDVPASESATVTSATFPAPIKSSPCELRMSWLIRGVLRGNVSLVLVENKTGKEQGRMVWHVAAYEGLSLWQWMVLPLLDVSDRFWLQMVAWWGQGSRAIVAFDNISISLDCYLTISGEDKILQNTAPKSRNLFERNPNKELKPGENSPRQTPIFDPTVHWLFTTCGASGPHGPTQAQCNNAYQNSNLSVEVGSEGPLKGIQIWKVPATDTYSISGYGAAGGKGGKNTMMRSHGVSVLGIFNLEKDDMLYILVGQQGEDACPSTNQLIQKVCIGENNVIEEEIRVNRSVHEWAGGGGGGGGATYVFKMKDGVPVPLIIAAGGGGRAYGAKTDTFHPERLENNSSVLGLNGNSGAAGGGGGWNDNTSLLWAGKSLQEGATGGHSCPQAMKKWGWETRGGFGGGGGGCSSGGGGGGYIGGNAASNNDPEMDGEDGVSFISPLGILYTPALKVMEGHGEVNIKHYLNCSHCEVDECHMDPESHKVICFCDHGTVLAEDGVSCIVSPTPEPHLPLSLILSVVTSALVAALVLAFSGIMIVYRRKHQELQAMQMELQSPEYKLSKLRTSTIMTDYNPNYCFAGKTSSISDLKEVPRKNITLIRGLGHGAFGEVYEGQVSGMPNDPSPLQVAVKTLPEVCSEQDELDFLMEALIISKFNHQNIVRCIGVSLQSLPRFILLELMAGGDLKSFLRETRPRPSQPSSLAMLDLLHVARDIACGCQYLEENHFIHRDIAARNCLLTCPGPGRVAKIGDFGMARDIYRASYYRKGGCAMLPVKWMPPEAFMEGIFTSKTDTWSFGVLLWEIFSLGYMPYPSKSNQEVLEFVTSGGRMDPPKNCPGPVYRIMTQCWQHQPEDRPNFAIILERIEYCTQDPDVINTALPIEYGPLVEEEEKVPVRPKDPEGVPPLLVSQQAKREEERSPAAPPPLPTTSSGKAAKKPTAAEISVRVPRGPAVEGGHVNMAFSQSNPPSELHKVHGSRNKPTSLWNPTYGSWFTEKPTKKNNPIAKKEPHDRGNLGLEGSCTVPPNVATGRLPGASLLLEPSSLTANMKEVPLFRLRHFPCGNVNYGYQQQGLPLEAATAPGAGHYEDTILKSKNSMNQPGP

[2] = Antiproliferative activity against human SUP-M2 cells assessed as growth inhibition at 200 nM after 72 hrs by SRB assay; type: functional; settings: SUP-M2, 72 h, read-out: GI
[3] = Antiproliferative activity against human SUP-M2 cells assessed as growth inhibition at 1000 nM after 72 hrs by SRB assay; type: functional; settings: SUP-M2, 72 h, read-out: GI
[4] = target: Vascular endothelial growth factor receptor 2 (Homo sapiens) (UniProt P35968); experiment: Inhibition of purified KDR (unknown origin) at 1 uM after 60 mins by ELISA kinase assay
[5] = target: Platelet-derived growth factor receptor alpha (Homo sapiens) (UniProt P16234); experiment: Inhibition of purified PDGFRalpha (unknown origin) at 1 uM after 60 mins by ELISA kinase assay
[6] = target: Platelet-derived growth factor receptor beta (Homo sapiens) (UniProt P09619); experiment: Inhibition of purified PDGFRbeta (unknown origin) at 1 uM after 60 mins by ELISA kinase assay
[7] = target: Tyrosine-protein kinase ABL1 (Homo sapiens) (UniProt P00519); experiment: Inhibition of purified Abl (unknown origin) at 1 uM after 60 mins by ELISA kinase assay
[8] = target: Insulin-like growth factor 1 receptor (Homo sapiens) (UniProt P08069); experiment: Inhibition of purified IGF1R (unknown origin) at 1 uM after 60 mins by ELISA kinase assay
Insulin-like growth factor 1 receptor (Homo sapiens), sequence (P08069 31-736 limits assumed): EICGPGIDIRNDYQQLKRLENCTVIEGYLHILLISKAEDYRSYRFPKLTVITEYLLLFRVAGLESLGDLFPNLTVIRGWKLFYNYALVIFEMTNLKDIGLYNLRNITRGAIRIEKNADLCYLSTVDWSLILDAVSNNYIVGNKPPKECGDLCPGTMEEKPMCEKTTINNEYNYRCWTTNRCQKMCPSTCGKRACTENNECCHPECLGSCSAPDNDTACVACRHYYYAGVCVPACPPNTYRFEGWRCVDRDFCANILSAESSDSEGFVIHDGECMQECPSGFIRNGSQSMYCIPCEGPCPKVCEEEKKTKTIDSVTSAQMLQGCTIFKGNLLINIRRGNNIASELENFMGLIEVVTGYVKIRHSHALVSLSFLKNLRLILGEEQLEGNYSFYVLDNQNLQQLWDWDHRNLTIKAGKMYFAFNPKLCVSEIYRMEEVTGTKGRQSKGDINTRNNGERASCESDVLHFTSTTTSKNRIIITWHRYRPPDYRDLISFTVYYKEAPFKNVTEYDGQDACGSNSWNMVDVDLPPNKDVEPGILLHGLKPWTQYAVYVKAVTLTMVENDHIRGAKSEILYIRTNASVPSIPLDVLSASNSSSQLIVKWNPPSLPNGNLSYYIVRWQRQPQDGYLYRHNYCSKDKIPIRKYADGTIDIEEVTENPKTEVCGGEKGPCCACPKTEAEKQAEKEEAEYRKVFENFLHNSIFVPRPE
Insulin-like growth factor 1 receptor (Homo sapiens), sequence (P08069 741-1367 limits assumed): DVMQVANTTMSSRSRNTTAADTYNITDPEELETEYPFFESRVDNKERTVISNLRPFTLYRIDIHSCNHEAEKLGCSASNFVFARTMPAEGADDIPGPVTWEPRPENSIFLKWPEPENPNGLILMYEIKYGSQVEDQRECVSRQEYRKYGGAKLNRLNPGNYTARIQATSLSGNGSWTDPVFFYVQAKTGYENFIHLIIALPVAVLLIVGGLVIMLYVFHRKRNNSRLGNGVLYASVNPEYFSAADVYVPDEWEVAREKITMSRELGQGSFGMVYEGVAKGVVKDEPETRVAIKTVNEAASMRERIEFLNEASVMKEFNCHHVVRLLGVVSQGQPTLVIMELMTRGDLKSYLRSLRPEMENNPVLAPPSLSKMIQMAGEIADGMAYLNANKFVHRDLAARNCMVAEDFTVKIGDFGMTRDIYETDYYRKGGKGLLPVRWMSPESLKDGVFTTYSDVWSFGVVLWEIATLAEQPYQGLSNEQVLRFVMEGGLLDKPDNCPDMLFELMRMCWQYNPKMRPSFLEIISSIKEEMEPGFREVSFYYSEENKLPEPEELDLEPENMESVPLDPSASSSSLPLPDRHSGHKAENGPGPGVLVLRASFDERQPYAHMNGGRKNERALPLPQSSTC

[9] = target: Fibroblast growth factor receptor 1 (Homo sapiens) (UniProt P11362); experiment: Inhibition of purified FGFR1 (unknown origin) at 1 uM after 60 mins by ELISA kinase assay
[10] = target: Proto-oncogene tyrosine-protein kinase receptor Ret (Homo sapiens) (UniProt P07949); experiment: Inhibition of purified RET (unknown origin) at 1 uM after 60 mins by ELISA kinase assay
[11] = target: T1, ALK tyrosine kinase receptor; experiment: Inhibition of ALK-mediated ERK phosphorylation in human H3122 cells; type: cell-based
Target sequence in this assay (Q9UM73 19-1620 limits assumed): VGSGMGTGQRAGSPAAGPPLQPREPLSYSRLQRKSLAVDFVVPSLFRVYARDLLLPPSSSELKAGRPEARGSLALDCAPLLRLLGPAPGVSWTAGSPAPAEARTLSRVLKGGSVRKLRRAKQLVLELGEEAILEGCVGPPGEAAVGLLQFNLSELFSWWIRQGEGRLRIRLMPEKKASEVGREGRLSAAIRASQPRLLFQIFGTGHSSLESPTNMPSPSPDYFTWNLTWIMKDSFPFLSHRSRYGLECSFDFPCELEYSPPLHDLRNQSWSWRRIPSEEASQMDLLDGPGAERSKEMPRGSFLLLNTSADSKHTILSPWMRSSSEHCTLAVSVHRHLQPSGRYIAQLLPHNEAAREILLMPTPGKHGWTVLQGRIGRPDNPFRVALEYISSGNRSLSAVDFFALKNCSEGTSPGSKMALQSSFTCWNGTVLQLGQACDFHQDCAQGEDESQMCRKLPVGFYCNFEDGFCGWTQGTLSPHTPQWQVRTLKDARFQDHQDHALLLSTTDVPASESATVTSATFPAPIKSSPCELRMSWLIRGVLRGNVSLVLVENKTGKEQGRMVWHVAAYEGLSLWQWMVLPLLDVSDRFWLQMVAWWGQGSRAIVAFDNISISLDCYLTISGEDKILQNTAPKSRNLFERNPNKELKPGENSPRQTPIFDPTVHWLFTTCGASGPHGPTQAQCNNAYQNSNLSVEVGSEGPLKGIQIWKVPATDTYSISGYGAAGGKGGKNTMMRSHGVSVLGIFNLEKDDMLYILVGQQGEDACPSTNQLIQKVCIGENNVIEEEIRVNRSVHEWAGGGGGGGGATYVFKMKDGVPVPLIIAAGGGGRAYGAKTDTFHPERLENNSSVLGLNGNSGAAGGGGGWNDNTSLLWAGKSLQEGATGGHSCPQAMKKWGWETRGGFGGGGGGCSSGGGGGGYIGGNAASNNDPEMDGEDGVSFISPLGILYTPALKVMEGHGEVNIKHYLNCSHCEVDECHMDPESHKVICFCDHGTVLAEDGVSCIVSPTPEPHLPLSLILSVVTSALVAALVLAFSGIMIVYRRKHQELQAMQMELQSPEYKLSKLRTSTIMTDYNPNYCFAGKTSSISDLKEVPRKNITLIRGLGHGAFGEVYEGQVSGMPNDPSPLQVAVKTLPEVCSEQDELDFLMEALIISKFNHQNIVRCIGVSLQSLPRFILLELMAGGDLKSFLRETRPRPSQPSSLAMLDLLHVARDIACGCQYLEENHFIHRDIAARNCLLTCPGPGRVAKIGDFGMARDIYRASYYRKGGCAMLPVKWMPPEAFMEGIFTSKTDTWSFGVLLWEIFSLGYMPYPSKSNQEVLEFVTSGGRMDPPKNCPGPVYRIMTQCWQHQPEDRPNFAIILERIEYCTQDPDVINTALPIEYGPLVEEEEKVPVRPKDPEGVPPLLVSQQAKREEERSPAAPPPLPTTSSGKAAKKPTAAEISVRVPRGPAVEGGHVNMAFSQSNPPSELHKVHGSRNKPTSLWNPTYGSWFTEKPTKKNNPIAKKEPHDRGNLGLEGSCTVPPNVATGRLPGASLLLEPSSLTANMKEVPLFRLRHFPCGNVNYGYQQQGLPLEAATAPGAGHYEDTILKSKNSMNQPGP

[12] = target: Epidermal growth factor receptor (Homo sapiens) (UniProt P00533); experiment: Inhibition of purified EGFR (unknown origin) at 1 uM after 60 mins by ELISA kinase assay
[13] = target: Vascular endothelial growth factor receptor 2 (Homo sapiens) (UniProt P35968); experiment: Inhibition of purified KDR (unknown origin) at 0.1 uM after 60 mins by ELISA kinase assay
[14] = target: T2, Hepatocyte growth factor receptor (Homo sapiens, UniProt P08581); experiment: Inhibition of purified c-MET (unknown origin) at 1 uM after 60 mins by ELISA kinase assay
[15] = target: T1, ALK tyrosine kinase receptor; experiment: Inhibition of ALK phosphorylation in human H3122 cells; type: cell-based
Target sequence in this assay (Q9UM73 19-1620 limits assumed): as above

[16] = target: Fibroblast growth factor receptor 1 (Homo sapiens) (UniProt P11362); experiment: Inhibition of purified FGFR1 (unknown origin) at 0.1 uM after 60 mins by ELISA kinase assay
[17] = target: Receptor tyrosine-protein kinase erbB-4 (Homo sapiens) (UniProt Q15303); experiment: Inhibition of purified ErbB4 (unknown origin) at 1 uM after 60 mins by ELISA kinase assay
[18] = target: ALK tyrosine kinase receptor (Homo sapiens, UniProt Q9UM73, L1196M); experiment: Inhibition of purified ALK L1196M mutant (unknown origin) after 60 mins by ELISA kinase assay
ALK tyrosine kinase receptor (Homo sapiens, UniProt Q9UM73, L1196M), sequence (Q9UM73 19-1620 L1196M limits assumed): as the sequence (Q9UM73 19-1620 limits assumed) above, with L1178M counted along it

[19] = target: Receptor tyrosine-protein kinase erbB-2 (Homo sapiens) (UniProt P04626); experiment: Inhibition of purified ErbB2 (unknown origin) at 1 uM after 60 mins by ELISA kinase assay
[20] = target: Insulin-like growth factor 1 receptor (Homo sapiens) (UniProt P08069); experiment: Inhibition of purified IGF1R (unknown origin) at 0.1 uM after 60 mins by ELISA kinase assay
[21] = target: T1, ALK tyrosine kinase receptor; experiment: Inhibition of ALK-mediated STAT3 phosphorylation in human H3122 cells; type: cell-based
Target sequence in this assay (Q9UM73 19-1620 limits assumed): as the sequence (Q9UM73 19-1620 limits assumed) above

[22] = target: Ephrin type-A receptor 2 (Homo sapiens) (UniProt P29317); experiment: Inhibition of purified EPH-A2 (unknown origin) at 1 uM after 60 mins by ELISA kinase assay
[23] = target: Vascular endothelial growth factor receptor 1 (Homo sapiens) (UniProt P17948); experiment: Inhibition of purified Flt-1 (unknown origin) at 1 uM after 60 mins by ELISA kinase assay
[24] = target: T1, ALK tyrosine kinase receptor; experiment: Inhibition of ALK-mediated AKT phosphorylation in human H3122 cells; type: cell-based
Target sequence in this assay (Q9UM73 19-1620 limits assumed): as above

[25] = target: Proto-oncogene tyrosine-protein kinase Src (Homo sapiens) (UniProt P12931); experiment: Inhibition of purified c-Src (unknown origin) at 1 uM after 60 mins by ELISA kinase assay
[26] = target: T1, ALK tyrosine kinase receptor; settings: 1 uM
Target sequence in this assay (Q9UM73 19-1620 limits assumed): as above
Description: Inhibition of purified ALK (unknown origin) at 1 uM after 60 mins by ELISA kinase assay

[27] = target: T2, Hepatocyte growth factor receptor; experiment: Inhibition of purified c-MET (unknown origin) after 60 mins by ELISA kinase assay
[28] = target: Receptor-type tyrosine-protein kinase FLT3 (Homo sapiens) (UniProt P36888); experiment: Inhibition of purified Flt-3 (unknown origin) at 1 uM after 60 mins by ELISA kinase assay

Compound: CC(C)S(=O)(=O)c1ccccc1Nc1nc(Nc2nc(C(=O)N3CCCCC3)cs2)ncc1Cl
- IC50 [1]: > 1000 nM

Compound: CC(C)S(=O)(=O)c1ccccc1Nc1nc(Nc2nc(C(=O)N3CC4CCC(C3)O4)cs2)ncc1Cl
- inhibition of growth at 0.2 µM [2]: 18.4%
- inhibition of growth at 1 µM [3]: 63.4%

Compound: CC(C)S(=O)(=O)c1ccccc1Nc1nc(Nc2nc(C(=O)NCCN3CCOCC3)cs2)ncc1Cl
- inhibition of growth at 0.2 µM [2]: 29.5%
- inhibition of growth at 1 µM [3]: 73.6%

Compound: CC(C)S(=O)(=O)c1ccccc1Nc1nc(Nc2nc3c(s2)CCN(C(=O)C2CCOCC2)CC3)ncc1Cl
- inhibition [4]: 53.5%
- inhibition [5]: 18%
- inhibition [6]: 5.6%
- IC50 [1]: 12.4 nM
- inhibition [7]: 45.6%
- inhibition [8]: 52.8%
- inhibition [9]: 100%
- inhibition [10]: 77%
- inhibition [11]: Dose-dependent effect
- inhibition [12]: 15.8%
- inhibition [13]: 40.6%
- inhibition [14]: 4.9%
- inhibition of growth at 0.2 µM [2]: 23.2%
- inhibition [15]: Dose-dependent effect
- inhibition [16]: 69.2%
- inhibition [17]: 33.4%
- IC50 [18]: 24 nM
- inhibition [19]: 0%
- inhibition [20]: 15.8%
- inhibition [21]: Dose-dependent effect
- inhibition [22]: 23%
- inhibition of growth at 1 µM [3]: 84.1%
- inhibition [23]: 0%
- inhibition [24]: Dose-dependent effect
- inhibition [25]: 51.3%

Compound: CC(C)S(=O)(=O)c1ccccc1Nc1nc(Nc2nc3c(s2)CCN(CC2CCOCC2)CC3)ncc1Cl
- inhibition of growth at 0.2 µM [2]: -13.7%
- inhibition of growth at 1 µM [3]: 59.9%

Compound: CC(C)S(=O)(=O)c1ccccc1Nc1nc(Nc2ncc(C(=O)N3C[C@H]4CN(C)C[C@H]4C3)s2)ncc1Cl
- IC50 [1]: > 1000 nM

Compound: CC(C)S(=O)(=O)c1ccccc1Nc1nc(Nc2nc3c(s2)CCN(C(=O)CO)CC3)ncc1Cl
- inhibition of growth at 0.2 µM [2]: 3.7%
- inhibition of growth at 1 µM [3]: 80.7%

Compound: CC(C)S(=O)(=O)c1ccccc1Nc1nc(Nc2nc3c(s2)CN(C)CC3)ncc1Cl
- IC50 [1]: > 1000 nM

Compound: COC(=O)c1csc(Nc2ncc(Cl)c(Nc3ccccc3S(=O)(=O)C(C)C)n2)n1
- IC50 [1]: > 1000 nM

Compound: CNC(=O)c1ccccc1Nc1nc(Nc2nc3c(s2)CCNCC3)ncc1Cl
- IC50 [1]: 61.8 nM
- inhibition [7]: 73.9%
- inhibition [26]: 96%
- inhibition [8]: 5.7%
- inhibition [10]: 81.5%
- inhibition [14]: 96%
- inhibition [17]: 60.1%
- IC50 [27]: 20 nM
- inhibition [22]: 63.2%
- inhibition [28]: 20.5%
- inhibition [23]: 16.3%
- inhibition [25]: 20.7%

Compound: CCOC(=O)c1csc(Nc2ncc(Cl)c(Nc3ccccc3S(=O)(=O)C(C)C)n2)n1
- IC50 [1]: > 1000 nM

Compound: CC(C)S(=O)(=O)c1ccccc1Nc1nc(Nc2nc(C(=O)N3C[C@H]4CN(C)C[C@H]4C3)cs2)ncc1Cl
- inhibition of growth at 0.2 µM [2]: -0.1%
- inhibition of growth at 1 µM [3]: 61.4%

Compound: CC(C)S(=O)(=O)c1ccccc1Nc1nc(Nc2nc3c(s2)CCN(C)CC3)ncc1Cl
- inhibition of growth at 0.2 µM [2]: 0.15%
- inhibition of growth at 1 µM [3]: 67.7%

Compound: CCOC(=O)N1CCc2nc(Nc3ncc(Cl)c(Nc4ccccc4S(=O)(=O)C(C)C)n3)sc2CC1
- inhibition of growth at 0.2 µM [2]: 5.5%
- inhibition of growth at 1 µM [3]: 16.1%

Compound: CC(C)S(=O)(=O)c1ccccc1Nc1nc(Nc2nc3c(s2)CCN(CCN2CCOCC2)CC3)ncc1Cl
- inhibition of growth at 0.2 µM [2]: 19.8%
- inhibition of growth at 1 µM [3]: 83.5%

More lines, now with the values ahead:

- IC50 [1]: > 1000 nM
Compound: CC(C)S(=O)(=O)c1ccccc1Nc1nc(Nc2nc(C(=O)O)cs2)ncc1Cl

- IC50 [1]: > 1000 nM
Compound: CC(C)S(=O)(=O)c1ccccc1Nc1nc(Nc2nc(C(=O)N3CC4(CCNCC4)C3)cs2)ncc1Cl

- IC50 [1]: > 1000 nM
Compound: CNC(=O)c1csc(Nc2ncc(Cl)c(Nc3ccccc3S(=O)(=O)C(C)C)n2)n1

- IC50 [1]: > 1000 nM
Compound: CC(C)S(=O)(=O)c1ccccc1Nc1nc(Nc2nc(C(=O)N3CCOCC3)cs2)ncc1Cl

- IC50 [1]: > 1000 nM
Compound: CC(C)S(=O)(=O)c1ccccc1Nc1nc(Nc2nc3c(s2)CNCC3)ncc1Cl

- IC50 [1]: > 1000 nM
Compound: CCCCOC(=O)c1csc(Nc2ncc(Cl)c(Nc3ccccc3S(=O)(=O)C(C)C)n2)n1

- IC50 [1]: > 1000 nM
Compound: COc1cc(NC(=O)c2csc(Nc3ncc(Cl)c(Nc4ccccc4S(=O)(=O)C(C)C)n3)n2)cc(OC)c1OC
